A short description of this data set: gradient 5% acetonitrile 3 min, to 50% in 2 min, to 85% in 15 min, held 3 min, 100 µL/min. To be noted: column: Zorbax Extend-C18 2.1 x 50 mm; eluents: water / acetonitrile, 0.1% formic acid. In short, it runs like this:
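Data were gathered over 3 months by HPLC coupled to a quadrupole time-of-flight mass spectrometer, operated in positive and negative ionization mode. Mixtures of ~100 pure standards ran on a Zorbax Extend-C18 column (2.1 × 50 mm, 1.8 μm) at 100 μL/min, with water and acetonitrile each containing 0.1% formic acid and dead and dwell volumes of 40 μL and 900 μL. Retention time was read from adduct peaks picked by computer and checked manually.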
`CCNc1cc(N2CCC(CCC(=O)NCc3nc4ccccc4n3C)CC2)ncn1` registered an RP-LC retention time of 554 s.
Take `Cc1nc2cccnc2n1CC1CCCN(S(=O)(=O)c2cccc(Br)c2)C1` (centres undefined): the RP-LC retention time came to 735 s.
`CCN1CCC(Nc2ccnc3cc(Cl)ccc23)CC1` displayed an RP-LC retention time of 588 s.
In turn, `CN(CC(=O)N1CCN(c2ccccc2)CC1)S(=O)(=O)c1ccc2c(c1)CCCC(=O)N2` came in with an RP-LC retention time of 737 s.
`CC(C)N1CCN(Cc2ccc(C(=O)NCc3cccc(C(F)(F)F)c3)cc2)C(=O)C1=O` gave an RP-LC retention time of 766 s.
Regarding `CC(C)CNC(=O)C1CC(=O)N(CCc2c[nH]c3ccc(Cl)cc23)C1` (centres undefined), the RP-LC retention time turned out to be 781 s.
The compound `COc1ccc(-c2noc(Cn3c(=O)n(CC(C)C)c(=O)c4ccccc43)n2)cc1OC` displayed an RP-LC retention time of 1050 s.
For the compound `Cc1sc2ccn(C)c(=O)c2c1C(=O)NCc1ccc(Br)cc1`, the RP-LC retention time is 811 s.
On to `COCCNCc1ccc(-c2cccc(Cl)c2)o1`, for which the RP-LC retention time stood at 647 s.
The figure for `Cc1ccc(Cn2c(C)c3cnn(CC(=O)NCC4CCCO4)c(=O)c3c2C)cc1` (centres undefined) is 780 s; for `Cc1noc(-c2ccc(=O)n(CC(C)C)n2)n1` it is 761 s.
Regarding `O=C(Nc1cc(-c2ccncc2)no1)c1ccccc1`, the RP-LC retention time is 663 s.
`O=C(CCn1cnc2cc(-c3noc(C4CC(=O)N(c5ccccc5)C4)n3)ccc21)N1CCCC1` (centres undefined): the RP-LC retention time is 659 s.
As for `CCCNS(=O)(=O)c1cc(-c2c(CC)noc2NC(C)=O)ccc1OC`, the RP-LC retention time turned out to be 774 s.
In turn, `COc1ccc(NC(=O)C2CCN(S(=O)(=O)c3ccc4c(c3)NC(=O)CO4)CC2)cc1Cl` registered an RP-LC retention time of 777 s.
The figure for `CCn1c(N2CCC(C(=O)NCCCN3CCOCC3)CC2)cc(=O)n(C)c1=O` is 574 s.
Compound `Cc1ccc(CNC(=O)Cn2c(=O)cc(-c3nc(C4CC4)no3)c3ccccc32)cc1` yielded an RP-LC retention time of 950 s.
`COc1ccccc1-c1nnc(NC(=O)c2c[nH]c3ccccc23)o1` registered an RP-LC retention time of 678 s.
In turn, `Cc1ccn2c(NC(=O)Cc3ccccc3)c(-c3ccc(F)cc3)nc2c1` showed an RP-LC retention time of 669 s.
`CCc1nc2cc(N3CCC(C(=O)NCc4ccc(F)cc4F)CC3)cnc2nc1CC` yielded an RP-LC retention time of 852 s.
The figure for `COc1ccccc1CNC(=O)Cn1c(=O)cc(-c2nc(C(C)C)no2)c2ccccc21` is 972 s.
In the case of `O=C(NCc1cccnc1)C1CCN(Cc2cc3ccccc3n2Cc2cccc(Cl)c2)CC1`, the RP-LC retention time was determined as 750 s.
`CN(Cc1ccsc1)C(=O)NC1CCCC1` yielded an RP-LC retention time of 792 s.
As to `O=C(NCc1c(F)cccc1F)c1csc(Nc2ncccn2)n1`, the RP-LC retention time turned out to be 695 s.
In turn, `Cc1ccc(NC(=O)CN2C(=O)CCCc3cc(S(=O)(=O)N4CCCC4)ccc32)cc1Cl` came in with an RP-LC retention time of 943 s.
The figure for `Cc1cccc(OCCc2noc(C3CNC3)n2)c1` is 644 s; for `CC(=O)Nc1ccc(CC(=O)N2C[C@@H]3CCN(S(C)(=O)=O)C[C@]3(CF)C2)cc1` it is 617 s; for `O=C(Nc1nnc(-c2cccs2)o1)c1cccc(N2C(=O)CCC2=O)c1` it is 617 s.
`CCOc1ccc(CC(=O)Nc2cc(-c3cccnc3)no2)cc1` displayed an RP-LC retention time of 760 s.
Consider `COCCN1C(=O)Cc2ccccc2C1C(=O)NCc1ccccc1Br` (centres undefined), for which the RP-LC retention time was 775 s.
As to `CCOC(=O)c1c(C)[nH]c(C(=O)N2CCC(CC(=O)NCc3cccc(C)c3)CC2)c1C`, the RP-LC retention time was determined as 820 s.
Turning to `CCc1nnc(NC(=O)Cc2csc(-n3cccc3)n2)s1`, the RP-LC retention time turned out to be 701 s.
As for `COc1ccc(-c2noc(C3CCCN3C(=O)Nc3cc(C)ccc3OC)n2)cc1` (centres undefined), the RP-LC retention time worked out at 859 s.
The figure for `CC(C)NC(=O)c1ccc2c(c1)nc(CN1CCN(C(=O)NC3CCCCC3)CC1)n2C` is 577 s.
`O=C(c1ccc(F)c(Cl)c1)N1CCC2(CC1)N=C(c1ccccc1)NO2` returned an RP-LC retention time of 800 s.
Compound `CCC(CC)C(=O)N1CCc2c(c(C(=O)N3CCCC(C(=O)Nc4ccccc4C)C3)nn2C)C1` (centres undefined) yielded an RP-LC retention time of 817 s.
`CCNc1cc(N2CCC(CCC(=O)NCc3cccs3)CC2)ncn1`: the RP-LC retention time is 627 s.
Consider `O=S(=O)(c1ccc(Br)cc1)N1CCCC1c1nc(-c2ccc(F)cc2)no1` (centres undefined), for which the RP-LC retention time was 1160 s.
`CCCOc1ccc(-c2nc(N3CCCCC3)c3ccccc3n2)cc1` had an RP-LC retention time of 930 s.
The compound `COc1ccc(-c2c(C)noc2NC(C)=O)cc1S(=O)(=O)Nc1cc(Cl)ccc1C` registered an RP-LC retention time of 792 s.
In turn, `COc1ccccc1OCCNC(=O)C1CCN(c2nnc3ccc(Cl)cn23)CC1` registered an RP-LC retention time of 707 s.
Consider `CCCC(=O)Nc1nc(-c2ccc3c(c2)N(C)C(=O)C(C)O3)cs1` (centres undefined), for which the RP-LC retention time came out at 831 s.
Compound `O=S(=O)(c1ccc2c(c1)-c1oncc1CO2)N1CCC2(CC1)OCCO2` registered an RP-LC retention time of 827 s.
`CC(C)NC(=O)N(C)Cc1nc2cc(C(=O)N3CCCC3)ccc2n1C`: the RP-LC retention time was found to be 550 s.
The figure for `CC1CCCN(CC2CCN(C(=O)Nc3ccc(Br)cc3)CC2)C1` (centres undefined) is 661 s; for `Cc1cc(C(=O)N[C@@H]2CN(c3ncccn3)C[C@H]2CO)ccn1` it is 529 s; for `Cc1ccc(-c2nc(NC(=O)CCc3ccccc3)sc2C)cc1` it is 1150 s.
`Cn1nc(-c2cccc(NC(=O)c3cccs3)c2)ccc1=O` showed an RP-LC retention time of 678 s.
As to `O=C(NC1CCCCC1)C1CC(=O)N(c2ccc3c(c2)CCN3C(=O)C2CC2)C1` (centres undefined), the RP-LC retention time came out at 733 s.
The figure for `O=C(CCc1nnn2c1CN(C(=O)NC1CCCCC1)CC2)N1CCOCC1` is 634 s; for `CCn1nccc1-c1cccc(-c2noc(C3CCN(S(=O)(=O)c4ccc(C)cc4)CC3)n2)c1` it is 1170 s.
In the case of `CC(C)n1c(N2CCN(C(=O)CSc3ccccc3)CC2)cc(=O)n(C(C)C)c1=O`, the RP-LC retention time came to 902 s.
`CCCn1c(=O)sc2cc(S(=O)(=O)N3CCC(C(=O)Nc4cccc(C)n4)CC3)ccc21` registered an RP-LC retention time of 844 s.
The figure for `CCN(CC)CCCNC(=O)C1c2ccccc2C(=O)N2CCc3cc(OC)c(OC)cc3C12` (centres undefined) is 597 s; for `O=C(Cc1cn2cc(Br)ccc2n1)N1CCc2ccccc2C1` it is 635 s.
Take `COc1cccc2c1OC1(C)CC2C(S(=O)(=O)c2ccc(C)c(C)c2)C(=O)N1` (centres undefined): the RP-LC retention time is 888 s.
Consider `Cc1nc(-c2ccc(OC3CCN(C(=O)c4nn(C)c5ccccc45)C3)cc2)no1` (centres undefined), for which the RP-LC retention time came to 942 s.
The compound `COC(=O)c1c(C)[nH]c(C(=O)N2CCC(CC(=O)NCCc3c[nH]c4ccc(Cl)cc34)CC2)c1C` registered an RP-LC retention time of 785 s.
The figure for `CCOc1ccc(CC(=O)NC(C)C(=O)Nc2nc3ccccc3[nH]2)cc1OCC` (centres undefined) is 668 s.
For `COc1ccc(OC)c(NC(=O)N2CCCC(C)(C(=O)NCc3ccc(C)cc3)C2)c1` (centres undefined), the RP-LC retention time came out at 932 s.
Take `O=C(NCC1CCCCC1)C1CCCN(c2nccn3nc(-c4ccccc4Cl)cc23)C1` (centres undefined): the RP-LC retention time amounted to 1040 s.
Compound `O=C(Nc1nnc(C2CCCO2)o1)c1cc2ccccc2o1` (centres undefined) had an RP-LC retention time of 655 s.
The figure for `CC(=O)Nc1cccc(C2OC(c3c(OC(C)=O)ccc4ccccc34)=NN2C(C)=O)c1` (centres undefined) is 838 s; for `Cc1ccc(C)c(CNC(=O)C2CCN(c3cncnc3N3CCOCC3)CC2)c1` it is 654 s; for `CCOc1ccc2nc(N3CCCC(C(=O)N4CCC(Cc5ccccc5)CC4)C3)sc2c1` (centres undefined) it is 1180 s.
Turning to `CN1C(=O)c2cccnc2Sc2cc(NC(=O)c3cccs3)ccc21`, the RP-LC retention time turned out to be 745 s.
The figure for `COc1ccc2c(c1)c1ccc3c(c1n2C)C(=O)C=CC3=O` is 1120 s; for `CCN1CCN(C(=O)CN2c3ccc(C(C)C)cc3-c3ccccc3S2(=O)=O)CC1` it is 712 s.
The figure for `Cc1ccc(C)c(NC(=O)N2CCN(CCn3cnc4cccnc43)CC2)c1` is 596 s.
In turn, `CCOc1ccccc1-c1noc(-c2nnn(Cc3nc(-c4cccc(C)c4)oc3C)c2C)n1` returned an RP-LC retention time of 1260 s.
The compound `CCn1cc(S(=O)(=O)N2CC(Oc3ccc(-c4nc(C)no4)cc3)C2)cn1` came in with an RP-LC retention time of 844 s.
Regarding `Cc1c(C(=O)C(=O)N(C)Cc2ccccc2)c2ccccc2n1C`, the RP-LC retention time was found to be 900 s.
`Cn1cccc1C(=O)C(=O)NCc1ccc2c(c1)OCO2` showed an RP-LC retention time of 793 s.
Take `CCOCCCNC(=O)COc1nc(C)nc2onc(-c3ccccc3)c12`: the RP-LC retention time is 846 s.
In the case of `O=C(Cc1ccc(Br)cc1)N1CCCN(c2cc(-c3ccc(F)cc3)[nH]n2)CC1`, the RP-LC retention time worked out at 773 s.
The figure for `COc1ccc(-c2cc(C(=O)Nc3cc(Cl)ccc3C)no2)cc1` is 1150 s; for `Cc1cc(=O)n(CC(=O)Nc2ccccc2)c(N2CCCC2)n1` it is 622 s.
Turning to `COC(=O)[C@@H]1[C@H]2C[C@@H]3c4[nH]c5ccccc5c4CCN3C[C@@H]2CC[C@@H]1O`, the RP-LC retention time worked out at 660 s.
`CCOCCCNC(=O)C1CCN(c2nccnc2Oc2ccccc2C)CC1` returned an RP-LC retention time of 841 s.

(Values after the METLIN SMRT retention time set (Domingo-Almenara et al. 2019).)
